From patent publication US12257287B2, “Glucagon-derived peptide and use thereof” (Tianjin Institute of Pharmaceutical Research Co., Ltd., priority 2018, dated 2025) come the findings set out here.

Marks after values point to notes of the source that are not given here. Numbered stars: 1 amine (or outer) side, 2 acyl side, 3 side chain; on linkers, the order of the positions; unused ones are H or OH. Square brackets hold non-standard residues; d marks the D form. Side chains are listed from the residue outwards. Peptide text beside a SMILES is read from it. * marks the point of attachment. C20 diacid = O=C(O)CCCCCCCCCCCCCCCCCCC(=O)*; C18 diacid = O=C(O)CCCCCCCCCCCCCCCCC(=O)*; γGlu = O=C(O)[C@H](CCC(=O)[*:2])N[*:1]; AEEA = NCCOCCOCC(=O)O; Aib = CC(C)(N)C(=O)O Where only a bound is given, the exact number is not on record here.

The nature of series [1]: Effect on body weight of DIO mice after 14 days' administration. The series is classed as in vivo, C57BL/6J mice. The following applies: positive values indicate a decrease; for body weight change, Table 5: Example 4, DIO mice, 14 days' administration, methods as in Example 3. The text has this:
C57BL/6J mice (n=35), model group (n=30) were fed with H10060 high-fat diet to induce obesity (DIO), blank control group (n=5) were fed with standard diet, both for 34 weeks. One day before the first administration, the model group was randomly divided into groups according to their body weight (average body weight range 45.0-52.0 g), with 5 mice in each group, which respectively were model control group, positive control group (semaglutide), and test sample group (1 #-4 # are compound 1, compound 4, compound 6 and compound 22, respectively). The blank control group and model control group were given saline subcutaneously every day, while the positive control group and test sample group were administrated by subcutaneous injection every day for 14 days. The body weight of the animals was weighed and recorded every day, and the change rate of body weight (%) was calculated by comparing the body weight at the last administration day with the initial body weight. (initial body weight−last body weight)/initial body weight=body weight change rate (%). Calculation formula: […]
Calculated positive values indicate a decrease and negative values indicate an increase.
(§1) Methods are the same as that in Example 3, the test results of effects on body weight are shown in Table 5, and the effects on blood glucose are shown in Table 6. In the table, 5 #-9 # are compound 27, compound 35, compound 54, compound 57, and compound 66, respectively.

Series [2] can be described thus: Glucose tolerance test in glucose-loaded DIO mice. Details: AUC reduction rate (%), Table 6: concentration or dose not given beside the values. The following applies: for AUC of blood glucose, Table 6: Example 4, DIO mice under glucose load, methods as in Example 3; for AUC reduction rate (%), Table 6: Example 4, compared with model control group, DIO mice under glucose load. The series is classed as in vivo. On the procedure:
DIO mice fasted for 16 h, and 1 h after administration by subcutaneous injection, glucose solution (1 g/kg) was given intraperitoneally for glucose tolerance test. Blood glucose values were measured at 0.5, 1 and 1.5 h after glucose administration. The area under the blood glucose concentration curve (AUC) was calculated and compared with that of the model control group, and the blood glucose inhibition rate (%) was calculated.
as §1

Series [3] can be described thus: Short-term administration: food intake and body weight in DIO mice. The series is classed as in vivo. The following applies: 30 nmol/kg once every 24 h, twice, − decrease; for Rate of change in food intake (%): at 48 hours vs day before administration; for Body weight change: at 48 hours. How it is done:
Method: diet-induced obese mice (DIO) with an average body weight of 52.5 g were divided into model control and test groups, 5 mice in each group. The test samples were dissolved in 10 mM PBS of pH7.4, injected once every 24 h at a dose of 30 nmol/kg, and administered twice. The model group was injected with solvent. Changes in food intake and body weight at 48 hours were measured, and the change rates were calculated compared to the day before administration.

In series [4] the target is T1, GC receptor (Homo sapiens, UniProt P47871).
T1 construct: expressed in transfected cells; host or cells: HEK293 cells
Description: GC receptor mediated cAMP production in vitro (HEK293 cells transfected with GC receptor). The series is classed as cell-based. The following applies: 20 min at 37° C., read-out: GCGR (nM EC50). The text has this: The medium was removed, the cells were lysed, and cAMP values were detected referring to the detection method described for the assay kit.

The nature of series [5]: Accelerated chemical stability in injection solvent system (HPLC-UV). The series is classed as physicochemical. The following applies: 14 days, phosphate buffer pH 7.3 with Tween 80 and phenol, main peak area vs day 0. On the procedure:
The chemical stability of the compounds of the present invention in injection solution systems was evaluated by an accelerated stability test. Methods: an appropriate amount of compound of Example 1 was weighed, and dissolved in 10 mM pH8.5 sodium hydrogen phosphate buffer. The final pH value of the solution was adjusted to 7.3 with 0.1 N hydrochloric acid, and proper amounts of Tween 80 and phenol were added. The mixture was placed at 10° C. and 37° C. for 14 days, and detected by HPLC-UV. The main peak area was obtained by peak area normalization method, and the changes compared with day 0 were investigated. The HPLC detection method was the same as that in Example 6, and the mobile phase gradient was appropriately adjusted according to the situation of chromatographic peak separation.

Series [6] can be described thus: physchem. It is filed as physicochemical. The following applies: pH 7.5, Solubility.
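For Solubility in this document: compound added at 2 mg per mL of phosphate buffer, with the dissolved amount determined in the supernatant.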

T1 sequence (P47871 26-477): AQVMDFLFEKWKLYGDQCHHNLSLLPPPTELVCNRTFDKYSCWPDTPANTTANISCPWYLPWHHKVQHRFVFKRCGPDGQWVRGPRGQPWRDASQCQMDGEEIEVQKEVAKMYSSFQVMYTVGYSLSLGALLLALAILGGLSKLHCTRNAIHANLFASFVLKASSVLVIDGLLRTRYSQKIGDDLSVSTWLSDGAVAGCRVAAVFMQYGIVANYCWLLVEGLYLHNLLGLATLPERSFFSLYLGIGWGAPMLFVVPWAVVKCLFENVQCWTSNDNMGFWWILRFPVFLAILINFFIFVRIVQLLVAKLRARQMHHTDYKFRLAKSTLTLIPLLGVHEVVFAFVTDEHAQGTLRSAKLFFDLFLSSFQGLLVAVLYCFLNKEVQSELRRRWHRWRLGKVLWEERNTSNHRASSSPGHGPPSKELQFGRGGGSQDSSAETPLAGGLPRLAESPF

Consider semaglutide [reference compound], for which the “body weight change rate, Table 3” value in series [1] (DIO mice, subcutaneous injection every day for 14 days, (initial−last)/initial) was found to be 13.20%. In addition, the “body weight change, Table 5” value in series [1] was found to be 16.29. Also, the “AUC of blood glucose, Table 4” value in series [2] (DIO mice fasted 16 h, glucose 1 g/kg i.p. 1 h after s.c. administration, 0.5, 1, 1.5 h) was found to be 8.97 ± 1.27 mmol·h/L. Also, in series [2], the “AUC of blood glucose, Table 6” value amounted to 8.33 ± 1.09 mmol·h/L and the “AUC reduction rate (%), Table 6” value is on record as 58.1** %. Besides, the “AUC reduction rate (%), Table 4” value in series [2] (blood glucose inhibition rate compared with model control group, DIO mice, glucose 1 g/kg i.p.) is 57.7** %.
As for `CC[C@H](C)[C@H](NC(=O)[C@H](Cc1ccccc1)NC(=O)[C@H](CCC(=O)O)NC(=O)[C@H](CCCCNC(=O)COCCOCCNC(=O)COCCOCCNC(=O)CC[C@H](NC(=O)CCCCCCCCCCCCCCCCC(=O)O)C(=O)O)NC(=O)[C@H](C)NC(=O)[C@H](C)NC(=O)[C@H](CCCNC(=N)N)NC(=O)[C@H](CCC(=O)O)NC(=O)[C@H](CCC(=O)O)NC(=O)[C@H](CC(C)C)NC(=O)[C@H](Cc1ccc(O)cc1)NC(=O)[C@H](CCCCN)NC(=O)[C@H](CO)NC(=O)[C@H](Cc1ccc(O)cc1)NC(=O)[C@H](CC(=O)O)NC(=O)[C@H](CO)NC(=O)[C@@H](NC(=O)[C@H](Cc1ccccc1)NC(=O)[C@@H](NC(=O)CNC(=O)[C@H](CCC(N)=O)NC(=O)C(C)(C)NC(=O)[C@@H](N)Cc1c[nH]cn1)[C@@H](C)O)[C@@H](C)O)C(=O)N[C@@H](C)C(=O)N[C@@H](Cc1c[nH]c2ccccc12)C(=O)N[C@@H](CC(C)C)C(=O)N[C@@H](CCC(=O)O)C(=O)N[C@@H](C)C(=O)NCC(=O)NCC(=O)N1CCC[C@H]1C(=O)N[C@@H](CO)C(=O)N[C@@H](CO)C(=O)NCC(N)=O` [Compound 28] (H-H[Aib]QGTFTSDYSKYLEERAAK([AEEA-AEEA-γGlu-C18 diacid])EFIAWLEAGGPSSG-NH2; N-terminus assumed), in series [3], the “Rate of change in food intake (%)” value is on record as −49% and the “Body weight change” value was -1.3 g. Further, the EC50 in series [4] is 0.026 nM.
For `CC(C)C[C@H](NC(=O)[C@H](Cc1c[nH]c2ccccc12)NC(=O)[C@H](C)NC(=O)[C@@H](NC(=O)[C@H](Cc1ccccc1)NC(=O)[C@H](CCC(=O)O)NC(=O)[C@H](CCCCN)NC(=O)[C@H](C)NC(=O)[C@H](C)NC(=O)[C@H](CCCNC(=N)N)NC(=O)[C@H](CCC(=O)O)NC(=O)[C@H](CC(=O)O)NC(=O)[C@H](CC(C)C)NC(=O)[C@H](Cc1ccc(O)cc1)NC(=O)[C@H](CCCCN)NC(=O)[C@H](CO)NC(=O)[C@H](CCCCNC(=O)COCCOCCNC(=O)COCCOCCNC(=O)CC[C@H](NC(=O)CCCCCCCCCCCCCCCCCCC(=O)O)C(=O)O)NC(=O)[C@H](CC(=O)O)NC(=O)[C@H](CO)NC(=O)[C@@H](NC(=O)[C@H](Cc1ccccc1)NC(=O)[C@@H](NC(=O)CNC(=O)[C@H](CCC(N)=O)NC(=O)C(C)(C)NC(=O)[C@@H](N)Cc1c[nH]cn1)[C@@H](C)O)[C@@H](C)O)C(C)C)C(=O)N[C@@H](CCC(=O)O)C(=O)N[C@@H](C)C(=O)NCC(=O)NCC(=O)N1CCC[C@H]1C(=O)N[C@@H](CO)C(=O)N[C@@H](CO)C(=O)NCC(N)=O` [Compound 13] (H-H[Aib]QGTFTSDK([AEEA-AEEA-γGlu-C20 diacid])SKYLDERAAKEFVAWLEAGGPSSG-NH2; N-terminus assumed), in series [3], the “Rate of change in food intake (%)” value is −67% and the “Body weight change” value is -2.3 g. In addition, in series [4], the EC50 was determined as 0.033 nM. In series [5], the “Change in purity % (10° C.)” value was −2.8% and the “Change in purity % (37° C.)” value is −6.9%. This compound yielded a solubility in series [6] (pH 7.5, 10 mM phosphate buffer) above 2000 µg/mL. In series [6] (pH 7.5, 20 mM phosphate buffer), the solubility was above 2000 µg/mL.
Turning to “HAibQGTFTSDYSKYLEEK*RAREFVEWLLEAGGPSSG-Amid (HXQGTFTSDYSKYLEEKRAREFVEWLLEAGGPSSG; HELM PEPTIDE1{H.[Aib].Q.G.T.F.T.S.D.Y.S.K.Y.L.E.E.K.R.A.R.E.F.V.E.W.L.L.E.A.G.G.P.S.S.G.[am]}|PEPTIDE2{[CCCCCCCCCCCCCCCC(=O)[*:2]].[gGlu].[gGlu]}$PEPTIDE1,PEPTIDE2,17:R3-3:R2$$$V2.0; N-terminus assumed; SMILES CCCCCCCCCCCCCCCC(=O)N[C@@H](CCC(=O)N[C@@H](CCC(=O)NCCCC[C@H](NC(=O)[C@H](CCC(=O)O)NC(=O)[C@H](CCC(=O)O)NC(=O)[C@H](CC(C)C)NC(=O)[C@H](Cc1ccc(O)cc1)NC(=O)[C@H](CCCCN)NC(=O)[C@H](CO)NC(=O)[C@H](Cc1ccc(O)cc1)NC(=O)[C@H](CC(=O)O)NC(=O)[C@H](CO)NC(=O)[C@@H](NC(=O)[C@H](Cc1ccccc1)NC(=O)[C@@H](NC(=O)CNC(=O)[C@H](CCC(N)=O)NC(=O)C(C)(C)NC(=O)[C@@H](N)Cc1c[nH]cn1)[C@@H](C)O)[C@@H](C)O)C(=O)N[C@@H](CCCNC(=N)N)C(=O)N[C@@H](C)C(=O)N[C@@H](CCCNC(=N)N)C(=O)N[C@@H](CCC(=O)O)C(=O)N[C@@H](Cc1ccccc1)C(=O)N[C@H](C(=O)N[C@@H](CCC(=O)O)C(=O)N[C@@H](Cc1c[nH]c2ccccc12)C(=O)N[C@@H](CC(C)C)C(=O)N[C@@H](CC(C)C)C(=O)N[C@@H](CCC(=O)O)C(=O)N[C@@H](C)C(=O)NCC(=O)NCC(=O)N1CCC[C@H]1C(=O)N[C@@H](CO)C(=O)N[C@@H](CO)C(=O)NCC(N)=O)C(C)C)C(=O)O)C(=O)O) [Compound 8, 32; * = -γE-γE-OC16H31]”, in series [1], the “body weight change, Table 5” value is 24.1. For the same compound, in series [2], the “AUC of blood glucose, Table 6” value came out at 8.11 ± 1.92 mmol·h/L and the “AUC reduction rate (%), Table 6” value is listed as 59.2** %.
For the compound `CC(C)C[C@H](NC(=O)[C@H](Cc1c[nH]c2ccccc12)NC(=O)[C@H](C)NC(=O)[C@@H](NC(=O)[C@H](Cc1ccccc1)NC(=O)[C@H](CCC(=O)O)NC(=O)[C@H](CCCCN)NC(=O)[C@H](C)NC(=O)[C@H](C)NC(=O)[C@H](CCCNC(=N)N)NC(=O)[C@H](CCC(=O)O)NC(=O)[C@H](CCC(=O)O)NC(=O)[C@H](CC(C)C)NC(=O)[C@H](Cc1ccc(O)cc1)NC(=O)[C@H](CCCCN)NC(=O)[C@H](CO)NC(=O)[C@H](CCCCNC(=O)COCCOCCNC(=O)COCCOCCNC(=O)CC[C@H](NC(=O)CCCCCCCCCCCCCCCCC(=O)O)C(=O)O)NC(=O)[C@H](CC(=O)O)NC(=O)[C@H](CO)NC(=O)[C@@H](NC(=O)[C@H](Cc1ccccc1)NC(=O)[C@@H](NC(=O)CNC(=O)[C@H](CCC(N)=O)NC(=O)C(C)(C)NC(=O)[C@@H](N)Cc1c[nH]cn1)[C@@H](C)O)[C@@H](C)O)C(C)C)C(=O)N[C@@H](CCC(=O)O)C(=O)N[C@@H](C)C(=O)NCC(=O)NCC(=O)N1CCC[C@H]1C(=O)N[C@@H](CO)C(=O)N[C@@H](CO)C(=O)NCC(N)=O` [Compound 22] (H-H[Aib]QGTFTSDK([AEEA-AEEA-γGlu-C18 diacid])SKYLEERAAKEFVAWLEAGGPSSG-NH2; N-terminus assumed), in series [3], the “Rate of change in food intake (%)” value was −62% and the “Body weight change” value was -2.6 g. The concentration giving a half-maximal response (EC50) in series [4] was 0.018 nM. In series [5], the “Change in purity % (10° C.)” value is recorded as −2.0% and the “Change in purity % (37° C.)” value is given as −5.7%. The same compound displayed a solubility in series [6] (pH 7.5, 10 mM phosphate buffer) above 2000 µg/mL. Moreover, the solubility in series [6] (pH 7.5, 20 mM phosphate buffer) is above 2000 µg/mL.

What is called EC50 is the concentration that produces a half-maximal response. As usually defined, the solubility is the concentration that dissolves in the medium under given conditions.
